Test results: publication PMC9568670, “A dominant negative mitofusin causes mitochondrial perinuclear clusters because of aberrant tethering” (Life Science Alliance, 2022)
Numbering of substitutions follows the chain as printed. Structures can show the parent of a compound that is named as a salt.

What was measured:
Assay type in all cases: biochemical
[1] = molecular target: T1, Mfn1^WT-FLAG (full-length) (Mus musculus, UniProt Q811U4); assay: blue native PAGE of isolated mitochondria, nucleotide-dependent oligomerization; conditions: 2 mM GMP-PNP, 37 C, 30 min; non-hydrolyzable GTP analog; indirect read-out by oligomer shift
T1 construct: full-length Mfn1 with FLAG tag, TET-induced in Flp-In TREx HEK293 cells; isolated mitochondria; ~200 kD species consistent with cis dimer
T1 sequence (Q811U4 1-741): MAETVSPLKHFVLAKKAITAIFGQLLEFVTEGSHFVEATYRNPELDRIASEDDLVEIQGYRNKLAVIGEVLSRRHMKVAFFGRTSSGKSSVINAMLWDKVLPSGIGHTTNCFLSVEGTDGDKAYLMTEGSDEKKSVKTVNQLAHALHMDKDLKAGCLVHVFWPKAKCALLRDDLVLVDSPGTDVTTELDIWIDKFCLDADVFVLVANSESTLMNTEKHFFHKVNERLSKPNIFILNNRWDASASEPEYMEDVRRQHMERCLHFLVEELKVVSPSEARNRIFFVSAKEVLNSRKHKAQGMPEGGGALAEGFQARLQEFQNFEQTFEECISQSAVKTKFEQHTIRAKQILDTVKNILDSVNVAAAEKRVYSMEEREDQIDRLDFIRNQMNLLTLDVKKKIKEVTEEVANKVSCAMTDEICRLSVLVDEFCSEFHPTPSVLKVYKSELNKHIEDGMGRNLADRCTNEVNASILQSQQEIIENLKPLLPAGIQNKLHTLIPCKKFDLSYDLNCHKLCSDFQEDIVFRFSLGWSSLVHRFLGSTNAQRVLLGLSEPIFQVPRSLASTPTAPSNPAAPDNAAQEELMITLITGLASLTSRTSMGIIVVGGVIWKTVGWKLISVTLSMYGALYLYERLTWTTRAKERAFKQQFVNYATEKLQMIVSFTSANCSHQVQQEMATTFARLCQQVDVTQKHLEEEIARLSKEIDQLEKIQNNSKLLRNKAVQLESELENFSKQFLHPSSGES

[2] = molecular target: T2, Mfn1IM (mini-mitofusin Mfn1) (Homo sapiens, UniProt Q8IWA4, DEL366-695); assay: malachite green phosphate release, allosteric sigmoidal fit; conditions: 2.5 uM protein; pH 7.4, 50 mM KCl, 5 mM MgCl2, 1 mM DTT, 37 C, 15 min
T2 construct: pET28, E. coli Rosetta(DE3); N-terminal His6 cut off with PreScission; ~50 kD; monomer with GDP, dimer with GDP-BeF3-
T2 sequence (Q8IWA4 1-365): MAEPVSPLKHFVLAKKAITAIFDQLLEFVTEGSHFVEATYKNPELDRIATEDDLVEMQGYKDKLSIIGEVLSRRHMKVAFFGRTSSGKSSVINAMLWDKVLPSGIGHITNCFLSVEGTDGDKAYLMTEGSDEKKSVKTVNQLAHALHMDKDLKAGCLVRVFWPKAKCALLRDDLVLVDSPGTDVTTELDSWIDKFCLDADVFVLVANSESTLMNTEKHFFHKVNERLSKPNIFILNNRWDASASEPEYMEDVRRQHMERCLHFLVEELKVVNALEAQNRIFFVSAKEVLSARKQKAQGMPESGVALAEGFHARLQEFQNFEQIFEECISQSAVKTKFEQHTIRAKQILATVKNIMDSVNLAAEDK
T2 sequence (Q8IWA4 696-741): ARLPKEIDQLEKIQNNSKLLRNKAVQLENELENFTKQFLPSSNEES

[3] = molecular target: T3, Mfn1IM (mini-mitofusin Mfn1) (Homo sapiens, UniProt Q8IWA4, S329P/DEL366-695); assay: as above; conditions: 2.5 uM protein; pH 7.4, 50 mM KCl, 5 mM MgCl2, 1 mM DTT, 37 C, 15 min
T3 construct: pET28, E. coli Rosetta(DE3); N-terminal His6 cut off with PreScission; ~50 kD; monomer with GDP, dimer with GDP-BeF3-
T3 sequence (Q8IWA4 1-365 S329P): T2 sequence (Q8IWA4 1-365) with S329P
T3 sequence (Q8IWA4 696-741): T2 sequence (Q8IWA4 696-741)

| SMILES | blue native PAGE of isolated mitochondria, nucleotide-dependent oligomerization [1] | Khalf [2] | Khalf [3] |
| --- | --- | --- | --- |
| Nc1nc2c(ncn2[C@@H]2O[C@H](COP(=O)(O)OP(=O)(O)NP(=O)(O)O)[C@@H](O)[C@H]2O)c(=O)[nH]1 [GMP-PNP, guanosine 5′-β,γ-imidotriphosphate trisodium salt hydrate] | GMP-PNP, which shifts mitofusin from the dimer into two larger species | – | – |
| Nc1nc2c(ncn2[C@@H]2O[C@H](COP(=O)(O)OP(=O)(O)OP(=O)(O)O)[C@@H](O)[C@H]2O)c(=O)[nH]1 [GTP] | – | kinetics of GTP hydrolysis was similar between Mfn1IM^WT and Mfn1IM^S329P | kinetics of GTP hydrolysis was similar between Mfn1IM^WT and Mfn1IM^S329P |
